Holding throughout (type): biochemical
One experiment addresses cathepsin S (Homo sapiens, UniProt P25774). Description: Inhibitory activity assay against cathepsin S (enzyme assay). The note with it: Z-Phe-Arg-AMC 70 μM, enzyme 3 nM, pH 6.5, 45 minutes. The method, boiled down: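 Cathepsin S (3 nM final) with Z-Phe-Arg-AMC substrate (70 μM final) in pH 6.5 buffer of 50 mM MES, 2.5 mM DTT, 1.0 mM EDTA, 0.001% BSA, 10% DMSO; compound 10.0 μM down to 0.000508 μM, 10 points. Fluorescence (ex 340/em 460 nm) after 45 min; IC50 by 4-parameter logistic fit.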

In the next experiment the target is cathepsin L (Homo sapiens, UniProt P07711). Description: Inhibitory activity assay against cathepsin L (enzyme assay). The note with it: Z-Phe-Arg-AMC 2 μM, enzyme 3 nM, pH 5.5, 30 minutes. The method, boiled down:
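Enzyme at 3 nM with 2 μM Z-Phe-Arg-AMC in 50 mM MES pH 5.5, 2.5 mM DTT, 2.5 mM EDTA, 0.005% Polysorbate 20, 10% DMSO; 30 min reaction, AMC fluorescence 340/460 nm. Ten-point series 10.0 μM to 0.000508 μM; IC50 by 4-parameter logistic fit.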

In another experiment the target is T1, cathepsin K (Homo sapiens, UniProt P43235).
T1 sequence (P43235 115-329): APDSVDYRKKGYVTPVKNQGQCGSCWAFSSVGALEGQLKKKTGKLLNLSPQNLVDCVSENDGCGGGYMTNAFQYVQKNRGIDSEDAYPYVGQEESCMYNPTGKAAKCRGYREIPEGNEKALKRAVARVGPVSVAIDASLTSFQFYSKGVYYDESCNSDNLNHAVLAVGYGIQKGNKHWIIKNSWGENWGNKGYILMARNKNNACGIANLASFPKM
Description: Inhibitory activity assay against cathepsin K (enzyme assay). The note with it: Z-Phe-Arg-AMC 10 μM, enzyme 1 nM, pH 5.5, 30 minutes. The method, boiled down:
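Fluorogenic assay with 1 nM cathepsin K and 10 μM Z-Phe-Arg-AMC in pH 5.5 buffer (50 mM MES, 2 mM DTT, 2.5 mM EDTA, 0.01% Triton X-100, 10% DMSO). Ten compound concentrations, 10.0 to 0.000508 μM; 30 min reaction, ex 355/em 460 nm; IC50 by 4-parameter logistic fit.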

For another experiment, the target named is cathepsin B (Homo sapiens, UniProt P07858). Description: Inhibitory activity assay against cathepsin B (enzyme assay). The following applies: Z-Arg-Arg-AMC 40 μM, enzyme 1 nM, pH 6.0, 90 minutes. Put shortly: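 1 nM enzyme with 40 μM Z-Arg-Arg-AMC and compound (10.0 μM down to 0.000508 μM, 10 points) in pH 6.0 buffer of 50 mM MES, 5 mM DTT, 2.5 mM EDTA, 0.005% Polysorbate 20, 10% DMSO. Fluorescence (340/460 nm) read after 90 min; IC50 by 4-parameter logistic fit.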

Some results are limits rather than exact numbers.

cathepsin S, sequence (P25774 115-331, species assumed): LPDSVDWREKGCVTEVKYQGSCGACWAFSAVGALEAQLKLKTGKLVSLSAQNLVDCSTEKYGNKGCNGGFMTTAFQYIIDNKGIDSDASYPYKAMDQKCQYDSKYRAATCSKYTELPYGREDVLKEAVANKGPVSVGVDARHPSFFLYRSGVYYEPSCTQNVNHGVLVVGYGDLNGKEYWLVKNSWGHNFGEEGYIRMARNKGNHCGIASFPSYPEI
cathepsin L, sequence (P07711 114-333, species assumed): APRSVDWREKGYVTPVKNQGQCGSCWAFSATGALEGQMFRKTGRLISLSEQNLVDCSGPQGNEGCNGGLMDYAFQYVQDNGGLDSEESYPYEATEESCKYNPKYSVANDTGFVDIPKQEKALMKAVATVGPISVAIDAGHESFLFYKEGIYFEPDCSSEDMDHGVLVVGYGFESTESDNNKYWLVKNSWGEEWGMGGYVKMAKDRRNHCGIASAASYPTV

Take `CN(C)C1CCN(c2ccc(NC(=O)NC3(c4ccnc(C#N)n4)CCCCC3)cc2)CC1` [Example 141, 1-(1-(2-cyanopyrimidin-4-yl)cyclohexyl)-3-(4-(4-(dimethylamino)piperidin-1-yl)phenyl)urea]: the half-maximal inhibitory concentration (IC50) against cathepsin S was > 10000 nM; at cathepsin L it was > 10000 nM; on cathepsin K, 4.5 nM; against cathepsin B, > 10000 nM.
Regarding `N#Cc1nccc(C2(NC(=O)Nc3cc(F)ccc3F)CCCC2)n1` [Example 65, 1-(1-(2-cyanopyrimidin-4-yl)cyclopentyl)-3-(2,5-difluorophenyl)urea], the IC50 on cathepsin S was > 10000 nM; against cathepsin L it was > 10000 nM; on cathepsin K, 46.6 nM; at cathepsin B, > 10000 nM.
As to `N#Cc1nccc(C2(NC(=O)Nc3ccc(Nc4ccccc4)cc3)CCCCC2)n1` [Example 101, 1-(1-(2-cyanopyrimidin-4-yl)cyclohexyl)-3-(4-(phenylamino)phenyl)urea], the IC50 against cathepsin S is > 10000 nM; on cathepsin L, > 10000 nM; at cathepsin K it was 21.7 nM; at cathepsin B, > 10000 nM.
In the case of `N#Cc1nccc(C2(NC(=O)Nc3ccc4c(c3)OCO4)CCCC2)n1` [Example 78, 1-(benzo[d][1,3]dioxol-5-yl)-3-(1-(2-cyanopyrimidin-4-yl)cyclopentyl)urea], the IC50 on cathepsin S was > 10000 nM; against cathepsin L, > 10000 nM; on cathepsin K, 51.8 nM; against cathepsin B, > 10000 nM.
As for `N#Cc1nccc(C2(NC(=O)NCc3ccc(F)cc3)CCCC2)n1` [Example 54, 1-(1-(2-cyanopyrimidin-4-yl)cyclopentyl)-3-(4-fluorobenzyl)urea], the half-inhibitory concentration (IC50) is > 10000 nM on cathepsin S, > 10000 nM against cathepsin L, 76 nM at cathepsin K and > 10000 nM on cathepsin B.
In the case of `N#Cc1nccc(C2(NC(=O)OCc3cccc(Cl)c3)CCCCC2)n1` [Example 16, 3-chlorobenzyl (1-(2-cyanopyrimidin-4-yl)cyclohexyl)carbamate], the half-maximal inhibitory concentration (IC50) is > 10000 nM against cathepsin S, 4610 nM at cathepsin L, 277 nM on cathepsin K and > 10000 nM against cathepsin B.
In the case of `N#Cc1nccc(C2(NC(=O)OCc3cccc(Br)c3)CCCCC2)n1` [Example 12, 3-bromobenzyl (1-(2-cyanopyrimidin-4-yl)cyclohexyl)carbamate], the IC50 against cathepsin S was > 10000 nM; at cathepsin L, 6910 nM; at cathepsin K it was 168 nM; on cathepsin B, > 10000 nM.
As for `N#Cc1nccc(C2(NC(=O)OCc3ccccc3Cl)CCCCC2)n1` [Example 28, 2-chlorobenzyl (1-(2-cyanopyrimidin-4-yl)cyclohexyl)carbamate], the half-maximal inhibitory concentration (IC50) is > 10000 nM at cathepsin S, 8780 nM on cathepsin L, 35.8 nM at cathepsin K and > 10000 nM against cathepsin B.
`N#Cc1nccc(C2(NC(=O)Nc3ccc(-c4ccc(O)cc4)cc3)CCCCC2)n1` [Example 115, 1-(1-(2-cyanopyrimidin-4-yl)cyclohexyl)-3-(4′-hydroxy-[1,1′-biphenyl]-4-yl)urea]: the 50% inhibitory concentration (IC50) against cathepsin S was > 10000 nM; at cathepsin L it was > 10000 nM; on cathepsin K, 9.2 nM; on cathepsin B, > 10000 nM.
On to `N#Cc1nccc(C2(NC(=O)Nc3ccc(-c4ccc(C(F)(F)F)cc4)cc3)CCCCC2)n1` [Example 114, 1-(1-(2-cyanopyrimidin-4-yl)cyclohexyl)-3-(4′-(trifluoromethyl)-[1,1′-biphenyl]-4-yl)urea], for which the concentration for half-maximal inhibition (IC50) is > 10000 nM on cathepsin S, > 10000 nM against cathepsin L, 69.7 nM on cathepsin K and > 10000 nM on cathepsin B.
For `CS(=O)(=O)c1ccc(-c2ccc(COC(=O)NC3(c4ccnc(C#N)n4)CCCC3)cc2)cc1` [Example 29, (4′-(methylsulfonyl)-[1,1′-biphenyl]-4-yl)methyl (1-(2-cyanopyrimidin-4-yl)cyclopentyl)carbamate], the IC50 against cathepsin S was > 10000 nM; against cathepsin L, > 10000 nM; on cathepsin K, 1570 nM; against cathepsin B it was > 10000 nM.

The values are drawn from patent US11299478B2, “2-cyanopyrimidin-4-yl carbamate or urea derivative or salt thereof, and pharmaceutical composition including same” (HANLIM PHARMACEUTICAL CO., LTD., priority 2018, dated 2022).
